Reference: paper PMC11255275, “Structural insights into the triple agonism at GLP-1R, GIPR and GCGR manifested by retatrutide” (Cell Discovery, 2024)
Residue numbers refer to the chain shown, from its start.

Key:
Experiment in all cases: cAMP accumulation, single-point mutated GIPR
Assay type in all cases: cell-based
GIPR mutants [1] = molecular target: T1, GIPR mutants (Homo sapiens, UniProt P48546, R131E); conditions: GIPR R131(1.33b)E
T1 construct: expressed in transfected cells; host or cells: HEK-293T
T1 sequence (P48546 22-466 R131E): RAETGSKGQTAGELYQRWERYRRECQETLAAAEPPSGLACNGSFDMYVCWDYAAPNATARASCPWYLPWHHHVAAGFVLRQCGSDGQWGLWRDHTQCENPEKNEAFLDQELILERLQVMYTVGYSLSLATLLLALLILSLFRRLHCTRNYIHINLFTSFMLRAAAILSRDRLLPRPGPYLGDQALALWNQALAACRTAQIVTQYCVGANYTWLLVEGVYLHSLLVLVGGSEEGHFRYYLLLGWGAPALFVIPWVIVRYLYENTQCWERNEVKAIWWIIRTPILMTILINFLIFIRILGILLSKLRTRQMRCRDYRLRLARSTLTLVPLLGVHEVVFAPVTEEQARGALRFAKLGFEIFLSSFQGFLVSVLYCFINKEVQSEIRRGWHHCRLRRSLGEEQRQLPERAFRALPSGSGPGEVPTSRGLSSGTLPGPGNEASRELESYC
Protocol: (§1) HEK-293T cells were maintained at 37°C in 5% CO2 incubator and seeded onto 6-well cell […]
(§2) culture plates before transfection. After overnight culture, the cells were transiently transfected […]
(§3) with various constructs using Lipofectamine 2000 transfection reagent (Invitrogen). After 24 h, […]
(§4) the transfected cells were seeded onto 384-microtiter plates at a density of 3,000 cells per well […]
(§5) in stimulation buffer (HBSS supplemented with 5 mM HEPES, 0.1% (w/v) casein and 0.5 mM […]
(§6) 3-isobutyl-1-methylxanthine). Different concentrations of retatrutide in stimulation buffer were […]
(§7) added, and the stimulation lasted for 40 min. The reaction was stopped by addition of cAMP […]
(§8) detection buffer containing Eu-cAMP tracer and ULight-anti-cAMP. Plates were then incubated for […]
(§9) 60 min at RT. Time-resolved FRET signals were measured at 620 nm and 665 nm, respectively, by […]
(§10) an EnVision multilabel plate reader (PerkinElmer). Data were analyzed in GraphPad PRISM 9.5 […]
(§11) and all values were normalized to that of the wild-type (WT).
(§12) Supplementary Fig. 5 Effects of receptor mutation on retatrutide-induced cAMP […]
(§13) accumulation. a-c, Signaling profiles of GLP-1R (a), GIPR (b) and GCGR (c) mutants. cAMP […]
(§14) accumulation was measured in wild-type (WT) and single-point mutated GLP-1R, GIPR or […]
(§15) GCGR expressing HEK-293T cells. cAMP levels were normalized to the maximum response […]
(§16) of the WT and dose-response curves were analyzed using a three-parameter logistic equation.
(§17) Data were generated and graphed as means ± S.E.M. of at least three independent experiments performed in quadruplicate.
(§18) (1 picture or pasted object on this page, not shown here)
(§19) Supplementary Ta b l e S 5 Effects of the ligand-binding pocket residue mutation on retatrutide- […]
(§20) induced cAMP signaling at GLP-1R, GIPR or GCGR. […]
(§21) cAMP levels were normalized to the maximum response of the wild-type (WT) and dose-response […]
(§22) curves were analyzed using a three-parameter logistic equation to obtain pEC50 and Emax values. The […]
(§23) experiments were carried out independently at least three times. Data shown are means ± S.E.M. One- […]
(§24) way ANOVA was used to determine statistical difference. N.D., values that could not be determined due […]
(§25) to incomplete curve fits. *P< 0.05, **P< 0.01, ***P< 0.001 and ****P<0.0001.

GIPR mutants [2] = molecular target: T2, GIPR mutants (Homo sapiens, UniProt P48546, E354A); conditions: GIPR E354(6.53b)A; HEK-293T, 40 min, TR-FRET; mean ± S.E.M., n at least 3
T2 construct: expressed in transfected cells; host or cells: HEK-293T
Protocol: as §1, §2, §3, §4, §5, §6, §7, §8, §9, §10, §11, §12, §13, §14, §15, §16, §17, §18, §19, §20, §21, §22, §23, §24, §25

GIPR mutants [3] = molecular target: T3, GIPR mutants (Homo sapiens, UniProt P48546, F127A); conditions: GIPR F127(1.29b)A; HEK-293T, 40 min, TR-FRET; mean ± S.E.M., n at least 3
T3 construct: expressed in transfected cells; host or cells: HEK-293T
Protocol: as §1, §2, §3, §4, §5, §6, §7, §8, §9, §10, §11, §12, §13, §14, §15, §16, §17, §18, §19, §20, §21, §22, §23, §24, §25

GIPR mutants [4] = molecular target: T4, GIPR mutants (Homo sapiens, UniProt P48546, E377A)
T4 construct: expressed in transfected cells; host or cells: HEK-293T
T4 sequence (P48546 22-466 E377A): T1 sequence (P48546 22-466 R131E) with E110R, E356A
Protocol: as §1, §2, §3, §4, §5, §6, §7, §8, §9, §10, §11, §12, §13, §14, §15, §16, §17, §18, §19, §20, §21, §22, §23, §24, §25

GIPR mutants [5] = molecular target: T5, GIPR mutants (Homo sapiens, UniProt P48546, R196Y); conditions: GIPR R196(ECL1)Y
T5 construct: expressed in transfected cells; host or cells: HEK-293T
T5 sequence (P48546 22-466 R196Y): T1 sequence (P48546 22-466 R131E) with E110R, R175Y
Protocol: as §1, §2, §3, §4, §5, §6, §7, §8, §9, §10, §11, §12, §13, §14, §15, §16, §17, §18, §19, §20, §21, §22, §23, §24, §25

GIPR mutants [6] = molecular target: T6, GIPR mutants (Homo sapiens, UniProt P48546, W209A); conditions: GIPR W209(ECL1)A; HEK-293T, 40 min, TR-FRET; mean ± S.E.M., n at least 3
T6 construct: expressed in transfected cells; host or cells: HEK-293T
Protocol: as §1, §2, §3, §4, §5, §6, §7, §8, §9, §10, §11, §12, §13, §14, §15, §16, §17, §18, §19, §20, §21, §22, §23, §24, §25

[7] = HEK-293T, 40 min, TR-FRET, mean ± S.E.M., n at least 3

T3 sequence (P48546 22-466 F127A): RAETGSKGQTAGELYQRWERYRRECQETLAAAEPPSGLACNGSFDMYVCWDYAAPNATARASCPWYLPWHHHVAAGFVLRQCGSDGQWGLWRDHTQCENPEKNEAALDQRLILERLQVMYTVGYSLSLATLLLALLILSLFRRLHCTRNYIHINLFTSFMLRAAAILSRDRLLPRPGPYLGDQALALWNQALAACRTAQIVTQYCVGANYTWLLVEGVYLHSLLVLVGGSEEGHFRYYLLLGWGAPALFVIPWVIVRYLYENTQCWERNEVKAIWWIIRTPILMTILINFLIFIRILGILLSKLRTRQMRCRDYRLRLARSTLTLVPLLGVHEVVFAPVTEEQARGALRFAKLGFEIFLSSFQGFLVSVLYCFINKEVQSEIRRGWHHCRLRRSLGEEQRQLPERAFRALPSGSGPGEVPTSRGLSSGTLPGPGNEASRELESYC
T2 sequence (P48546 22-466 E354A): as the sequence (P48546 22-466 F127A) above, with A106F, E333A counted along it
T6 sequence (P48546 22-466 W209A): as the sequence (P48546 22-466 F127A) above, with A106F, W188A counted along it

SMILES: CC[C@H](C)[C@H](NC(=O)[C@H](Cc1ccccc1)NC(=O)[C@H](C)NC(=O)C(C)(C)NC(=O)[C@H](CCC(N)=O)NC(=O)[C@H](C)NC(=O)[C@H](CCCCNC(=O)COCCOCCNC(=O)CC[C@H](NC(=O)CCCCCCCCCCCCCCCCCCC(=O)O)C(=O)O)NC(=O)[C@H](CCCCN)NC(=O)[C@H](CC(=O)O)NC(=O)[C@H](CC(C)C)NC(=O)[C@](C)(CC(C)C)NC(=O)[C@@H](NC(=O)[C@H](CO)NC(=O)[C@H](Cc1ccc(O)cc1)NC(=O)[C@H](CC(=O)O)NC(=O)[C@H](CO)NC(=O)[C@@H](NC(=O)[C@H](Cc1ccccc1)NC(=O)[C@@H](NC(=O)CNC(=O)[C@H](CCC(N)=O)NC(=O)C(C)(C)NC(=O)[C@@H](N)Cc1ccc(O)cc1)[C@@H](C)O)[C@@H](C)O)[C@@H](C)CC)C(=O)N[C@@H](CCC(=O)O)C(=O)N[C@@H](Cc1ccc(O)cc1)C(=O)N[C@@H](CC(C)C)C(=O)N[C@@H](CC(C)C)C(=O)N[C@@H](CCC(=O)O)C(=O)NCC(=O)NCC(=O)N1CCC[C@H]1C(=O)N[C@@H](CO)C(=O)N[C@@H](CO)C(=O)NCC(=O)N[C@@H](C)C(=O)N1CCC[C@H]1C(=O)N1CCC[C@H]1C(=O)N1CCC[C@H]1C(=O)N[C@@H](CO)C(N)=O [retatrutide]
- change of retatrutide potency by mutation (GIPR mutants [1]; relative to WT, modestly): decreased
- Emax ± S.E.M. (% WT) (GIPR mutants [1]; [7]): 98.44 ± 3.88 % WT
- EC50 (GIPR mutants [1]; HEK-293T, 40 min, TR-FRET, mean ± S.E.M., n at least 3, **P < 0.01): 9.33 pM
- EC50 (GIPR mutants [2]): 5.89 pM
- Emax ± S.E.M. (% WT) (GIPR mutants [2]): 99.43 ± 4.28 % WT
- EC50 (GIPR mutants [3]): 4.17 pM
- Emax ± S.E.M. (% WT) (GIPR mutants [3]): 99.67 ± 4.00 % WT
- decrease of cAMP signaling potency by mutation (GIPR mutants [4]; GIPR E7.42bA (E377A), relative to WT): 71.6 fold
- Emax ± S.E.M. (% WT) (GIPR mutants [4]; GIPR E377(7.42b)A, HEK-293T, 40 min, TR-FRET, mean ± S.E.M., n at least 3): 99.83 ± 6.38 % WT
- EC50 (GIPR mutants [4]; GIPR E377(7.42b)A, HEK-293T, 40 min, TR-FRET, mean ± S.E.M., n at least 3, ****P < 0.0001): 166 pM
- decrease of retatrutide potency by mutation (GIPR mutants [5]; relative to WT): 107.7 fold
- Emax ± S.E.M. (% WT) (GIPR mutants [5]; [7]): 92.16 ± 5.36 % WT
- EC50 (GIPR mutants [5]; HEK-293T, 40 min, TR-FRET, mean ± S.E.M., n at least 3, ****P < 0.0001): 245 pM
- EC50 (GIPR mutants [6]): 2 pM
- Emax ± S.E.M. (% WT) (GIPR mutants [6]): 100.17 ± 3.21 % WT
